This note sets out measurements from PubChem BioAssay AID2305 (GlaxoSmithKline (GSK), 2010).

Several values for one entry are separate records, joined by “and”; a condition that tells them apart may be missing. Equal values may be shown once.

In the experiment the test system is P. falciparum 3D7 growth, pLDH absorbance. As to the kind of experiment: blood-stage malaria parasite growth potency – strain 3D7, dose response (AID 2305).
On to `Cc1c(S(=O)(=O)Nc2ccc3nccc(N4C[C@@H](C)N[C@@H](C)C4)c3c2)sc2ccc(Cl)cc12`, for which the IC50 (as a rule, the midpoint of a concentration-inhibition curve) was found to be 1020 nM.

`Cc1noc(C)c1-c1cccc(CNCc2cccc(-c3cccc(-c4nc5ccc(C(F)(F)F)cc5[nH]4)c3)c2)c1` came in with an IC50 of 460 nM.

In turn, `Oc1cc(Nc2ccnc3cc(-c4ccc(CN5CCCCC5)o4)c(Cl)cc23)c(Cl)cc1F` registered an IC50 of 1260 nM.

`O=S(=O)(NCCN1CCCC1)c1ccc(-c2ccc(CNCc3ccc(F)cc3)cc2)cc1` displayed an IC50 of 790 nM. Against the preceding compound, the IC50 is about 1.6-fold lower.

In the case of `Cc1sc2nc(CSc3ccccc3)nc(N3CCN(CC(=O)NC4CC4)CC3)c2c1C`, the IC50 was determined as 460 nM.

In the case of `CCN(CC)CCCC(C)Nc1ccnc2ccc(OC)cc12` (configuration not stated), the IC50 was found to be 820 nM. Against the preceding compound, the IC50 is about 1.8-fold higher.

Compound `CCCCC(CC)C(=O)C(NC(=O)[C@H](CSC(c1ccccc1)(c1ccccc1)c1ccccc1)NC(=O)OC(C)(C)C)C(=O)OC` (some centres not stated) gave an IC50 of 1020 nM.

For `O=C(Nc1ccc(C(F)(F)F)cc1)c1ccc(NCCCN2CCCCCC2)c([N+](=O)[O-])c1`, the IC50 is 320 nM.

With `COc1cccc(C(=O)[C@H]2C[C@@H]2CN2CC=C(c3c[nH]c4cccc(Br)c34)CC2)c1`, the IC50 was found to be 750 nM.

The compound `Cc1cccc2[nH]c(-c3ccc(-c4cccc(C(=O)NCCc5cn(C)cn5)c4)s3)nc12` returned an IC50 of 880 nM.

Regarding `O=C(NCCCCN1CCC(c2ccc3c(c2OCc2ccncc2)CCCC3)CC1)c1ccc(NC(=O)c2ccc(Cl)cc2)cc1`, the half-maximal inhibitory concentration (IC50) stood at 220 nM.

Compound `CN1CCC(N2CCN(CCOc3cc(NC(=O)/C=C/c4ccccc4Cl)ccc3Br)CC2)CC1` registered an IC50 of 360 nM. This IC50 lies about 1.6-fold higher than the previous one.

`O=C(Nc1ccc(Cl)c(-c2nc3ccccc3[nH]2)c1)c1ccc(-c2ccc(Cl)cc2)o1`: the IC50 was 790 nM.

As for `Clc1cccnc1N1CCN(c2ncccc2Cl)CC1`, the IC50 was determined as 150 nM. Compared with the last compound, the IC50 is about 5.3-fold lower.

`Cc1nc2ccccn2c1C1(O)C(=O)Nc2c(Cl)cc(Cl)cc21` (configuration not stated) returned an IC50 of 1590 nM.

In the case of `CCNc1cc(C(=O)N[C@@H](Cc2ccccc2)[C@H](O)CNCc2cccc(-n3ccnc3)c2)cc(N2CCCC2=O)c1`, the IC50 is 630 nM. This IC50 is about 2.5-fold lower than that of the compound before.

With `O=[N+]([O-])c1nc(Br)n(Cc2ccc(Cl)cc2)n1`, the IC50 was 360 nM.

For the compound `Cc1ccc(F)c(CN2CCC(N3CC(c4ccccc4)(c4ccccc4)OC3=O)CC2)c1Cl`, the IC50 was 590 nM. This IC50 lies about 1.6-fold higher than the previous one.

Compound `COc1ccc(C=CC(=O)N2CCC(CN3CCC(c4c[nH]c5ccccc45)CC3)CC2)cc1OC` registered an IC50 of 1070 nM. This IC50 lies about 1.8-fold higher than the previous one.

`CCOC(=O)C1=C(C)NC2=C(C(=O)CCC2)C1c1cn(Cc2ccc(Cl)cc2Cl)nc1-c1ccccc1` (configuration not stated) returned an IC50 of 620 nM.

The compound `Cc1cccc2[nH]c(-c3cccc(-c4cccc(CNCCN5CCNCC5)c4)c3)nc12` had an IC50 of 970 nM.

In turn, `Cc1nnc2c(NC(=O)NC3CCCC3)cc3ccc(-c4cccc(CN(C)C)c4)cc3n12` came in with an IC50 of 1160 nM. The IC50 values of the last two compounds are within 1.5-fold of each other.

`O=C(NC1CCC(CN2CCC(c3c[nH]c4ccccc34)CC2)CC1)C1(O)c2ccccc2-c2ccccc21` (configuration not stated) registered an IC50 of 1190 nM.

`Cc1ccc(NC(=O)c2ccc3ncccc3c2)cc1OC1CCN(Cc2ccsc2)C1` (configuration not stated) displayed an IC50 of 800 nM.

The compound `c1ccc(CNc2cc(-c3ccccn3)nc(-c3ccccn3)n2)cc1` showed an IC50 of 300 nM. This IC50 lies about 2.7-fold lower than the previous one.

`CN1CCN(c2ccnc3ccc(NC(=O)Cc4ccc(Br)c5ccccc45)cc23)CC1` yielded an IC50 of 810 nM.

Regarding `c1ccc(CNCc2cccc(-c3csc(-c4nc5ccccc5[nH]4)c3)c2)cc1`, the IC50 stood at 460 nM.

`FC(F)(F)c1cccc(C=NNc2nc3ccccc3[nH]2)c1`: the IC50 turned out to be 150 nM.

In the case of `Fc1ccc(-c2cncc(Nc3ccncc3)n2)cc1`, the IC50 is 1320 nM.

`CCCn1c(Sc2ccc(C#N)c([N+](=O)[O-])c2)nnc1-c1cc(OC)cc(OC)c1`: the IC50 was found to be 720 nM.

In turn, `CC(=O)N(C)c1cccc(C(=O)Nc2ccc(-c3cccc(-c4nc5c(C)cccc5[nH]4)c3)cc2)c1` gave an IC50 of 650 nM.

Regarding `Cc1c(C)c2c(c(C)c1O)CC[C@](C)(C(=O)NC1CCC(CN3CCC(c4c[nH]c5ccccc45)CC3)CC1)O2` (some centres not stated), the IC50 is 880 nM and 1120 nM.

As for `Cc1nc2nc(N)nc(N)c2c(C)c1Cc1ccccc1`, the IC50 came out at 250 nM.

`FC(F)(F)c1ccc2nc(-c3ccc(-c4cccc(CNCc5cnn(-c6ccccc6)n5)c4)cc3)[nH]c2c1`: the IC50 came to 650 nM.

Consider `CC(C)Oc1cc2c(cc1NS(=O)(=O)c1ccc(-c3cccs3)cc1)CCN(C)CC2`, for which the IC50 came to 960 nM. The IC50 values of the last two compounds are within 1.5-fold of each other.

`Cc1cccn2c(=O)c3cc(C(=O)NCc4cccnc4)c(=N)n(CCc4ccccc4)c3nc12` had an IC50 of 710 nM.

`Cc1cc(N2CCC(N(C)C)C2)nc(Nc2ccc(Cl)cc2)n1` (configuration not stated) gave an IC50 of 520 nM.

As to `CC(=O)C1(c2ccccc2)CCN(CCC2(c3ccc(Cl)c(Cl)c3)CN(C(=O)Nc3cccc(C(F)(F)F)c3)CCO2)CC1` (configuration not stated), the IC50 stood at 1050 nM.

The compound `CC(=O)Oc1c(C2C=CCCC2)c(OC(C)=O)c2ccccc2c1OC(C)=O` (configuration not stated) gave an IC50 of 600 nM.

`O=C(Nc1cccc(C(F)(F)F)c1)c1cccc(S(=O)(=O)NCC2CCCN(Cc3ccccc3)C2)c1` (configuration not stated) returned an IC50 of 1100 nM.

`FC(F)(F)c1ccc2nc(-c3ccc(-c4cccc(CNCCN5CCNCC5)c4)s3)[nH]c2c1` came in with an IC50 of 1040 nM.

For the compound `CN(C)Cc1ccc(CN2CCN(CCOc3ccc(-c4ccc(Cl)cc4)cc3)CC2)o1`, the IC50 turned out to be 1020 nM.

The compound `Cc1cccc(CC2CC(=O)N(c3ccc([N+](=O)[O-])cc3)C2=O)c1` (configuration not stated) showed an IC50 of 200 nM.

`N#Cc1ccc(-c2ccc(C(=O)NCCCCN3CCC(c4ccc5c(c4OCc4ccncc4)CCCC5)CC3)cc2)cc1`: the IC50 was 760 nM.

With `CNc1ccc(CNCc2cccc(-c3ccc(-c4nc5ccc(C(F)(F)F)cc5[nH]4)cc3)c2)cc1`, the IC50 is 110 nM.

For the compound `CN1CCCC(CN2CCN(Cc3ccc(-c4ccc(-c5nc6ccc(F)cc6[nH]5)s4)cc3)CC2)C1` (configuration not stated), the IC50 came to 130 nM.

`O=C(Nc1cccc(CN2CCCN(Cc3ccccc3)CC2)c1)c1cc2ccccc2s1` registered an IC50 of 1200 nM. This IC50 lies about 9.2-fold higher than the previous one.

Turning to `O=C(Nc1cccc(Cl)c1)N(CCCn1ccnc1)Cc1csc(-c2ccc(CNCc3ccccc3)cc2)n1`, the IC50 turned out to be 540 nM. This IC50 is about 2.2-fold lower than that of the compound before.

Take `O=C(Nc1ccccc1C(F)(F)F)NC1CCC(CN2CCC(c3c[nH]c4ccccc34)CC2)CC1` (configuration not stated): the IC50 is 950 nM and 780 nM.

With `NCC1CCCN1Cc1ccc(-c2ccc(-c3nc4ccc(C(F)(F)F)cc4[nH]3)s2)cc1` (configuration not stated), the IC50 was found to be 790 nM.

In turn, `CC1(C)N=C(N)N=C(N)N1c1ccc([N+](=O)[O-])cc1` displayed an IC50 of 230 nM.

Compound `Fc1ccc2nc(Nc3nc(-c4ccccn4)cs3)sc2c1` had an IC50 of 560 nM.

`CCCCCCCc1cc(=O)c2ccccc2[nH]1` gave an IC50 of 320 nM.

With `COc1cc(NC(=O)Nc2ccnc3ccccc23)cc(OC)c1`, the half-maximal inhibitory concentration (IC50) stood at 470 nM. The IC50 values of the last two compounds are within 1.5-fold of each other.

With `COc1ccc(Br)cc1/C=C/C(=O)Nc1cccc(C2CCN(C)CC2)c1`, the IC50 is 520 nM. The IC50 values of the last two compounds are within 1.5-fold of each other.

`NCC1CCCN1Cc1ccc(-c2ccc(-c3nc4ccc(F)cc4[nH]3)cc2)cc1` (configuration not stated) registered an IC50 of 930 nM.

`Cc1cc2ccccc2n1CC(=O)N1CC(C(=O)N2CCCCC2)Oc2ccccc21` (configuration not stated) yielded an IC50 of 900 nM.

Regarding `COc1ccccc1N1CCN(CCCCNC(=O)c2ccc(NC(=O)c3cc4ccccc4o3)cc2)CC1`, the IC50 came to 980 nM.

In the case of `Cc1ccc(C(=O)N2CCN(Cc3nccs3)CC2)cc1`, the IC50 was 1010 nM. This IC50 and that of the compound before are within 1.5-fold of each other.

Regarding `CCc1ccc(NC(=O)c2ccc(CN3CCCN(Cc4cccs4)CC3)cc2)cc1`, the IC50 was found to be 830 nM.

Take `CCCc1cn2c3c(cc(C(=O)N[C@@H](Cc4ccccc4)[C@H](O)CNC4CCOCC4)cc13)N(C)S(=O)(=O)CC2`: the IC50 amounted to 50 nM. This IC50 is about 17-fold lower than that of the compound before.

`CN(C)Cc1cccc(CNC(=O)c2sccc2OCc2ccc(Cl)cc2)c1` registered an IC50 of 830 nM. Compared with the last compound, the IC50 is about 17-fold higher.
